# Measurements taken from patent US9999605B2, “Preparation for treatment of a non-oral treatment site comprising an active chlorine compound and amino acids” (RLS GLOBAL AB, priority 2012, dated 2018).
# How the values were obtained:
# [1] = test system: amputation wound; assay: Example 4: treatment of an amputation wound; type: in vivo, human; conditions: 750 mg×3, prescribed May 24, 2012, before the test treatments
# Procedure: If nothing else is mentioned herein below, the treatment preparation used in the examples below was prepared just before application by mixing one volume of a component containing aqueous NaOCl in an amount of 1-2% (by weight) with one volume of a component containing amino acids lys+Glu+Leu (1:1:1 relation and 0.7-0.8% total amino content by weight), TiO2 (0.04% by weight), NaCl (0.3-0.6% by weight), Na-CMC (medium viscosity; 3% by weight), and NaOH (added to adjust the pH to be 9.5-10.5 by weight). Medium viscosity of carboxymethyl cellulose is defined as 400-800 (mPas).
# The components were mixed and the resulting mixture, i.e. the treatment preparation, was applied immediately (within seconds at the most one minute) to the treatment site, e.g. an ulcer. In this way there was provided that the mentioned chemical reaction forming halogenated amino acids occurs in contact with the treatment site. The resulting chemical reaction was allowed to proceed so as to separate dead tissue from healthy tissue as well as decomposing and/or destroying bacteria. The mixture in the form a solution was left within the treatment area, e.g. ulcer, for 5 minutes or less, wherein the reaction proceeds such that bubbles and a smell of chlorine appear and then disappear in the preparation. […]
# [2] = test system: Staphylococcus; assay: Example 2: bacterial cultivation, resistance; type: cell-based; conditions: bacterial cultivation from the leg ulcer
smiles,measurement,setting,value
Cc1onc(-c2c(F)cccc2Cl)c1C(=O)N[C@@H]1C(=O)N2[C@@H]1SC(C)(C)[C@@H]2C(=O)O [Heracillin®],effect of antibiotic on non-healing amputation wound,[1],did not improve their condition
CC1(C)S[C@@H]2[C@H](NC(=O)COc3ccccc3)C(=O)N2[C@H]1C(=O)O [fenoximetylpenicillin],resistance of cultivated Staphylococcus,[2],resistant
Cc1onc(-c2c(F)cccc2Cl)c1C(=O)N[C@@H]1C(=O)N2[C@@H]1SC(C)(C)[C@@H]2C(=O)O [flukloxacillin],resistance of cultivated Staphylococcus,[2],resistant
